Experiment [1] has as its target cytochrome bc1 complex (ubiquinol:cytochrome c oxidoreductase; respiratory complex III) (Homo sapiens, UniProt P00156). It counts as biochemical.
The target in experiment [2] is T1, cytochrome bc1 complex (ubiquinol:cytochrome c oxidoreductase; respiratory complex III) (Plasmodium falciparum, UniProt Q02768).
T1 sequence (Q02768 1-376): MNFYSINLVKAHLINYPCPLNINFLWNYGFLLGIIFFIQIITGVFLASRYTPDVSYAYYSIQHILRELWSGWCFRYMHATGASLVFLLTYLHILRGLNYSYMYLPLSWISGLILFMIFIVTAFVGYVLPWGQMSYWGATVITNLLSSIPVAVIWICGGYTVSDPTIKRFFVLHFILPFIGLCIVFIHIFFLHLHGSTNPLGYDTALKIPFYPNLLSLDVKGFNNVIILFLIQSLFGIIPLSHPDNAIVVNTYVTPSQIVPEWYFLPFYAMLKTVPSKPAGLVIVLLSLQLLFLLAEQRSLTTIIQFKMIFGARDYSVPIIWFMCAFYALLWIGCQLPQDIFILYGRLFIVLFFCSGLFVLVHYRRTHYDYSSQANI
It counts as biochemical.

The structures appear in SMILES notation.

Consider two compounds from paper PMC3308910 (2012).

Sequence of cytochrome bc1 complex (ubiquinol:cytochrome c oxidoreductase; respiratory complex III) (Homo sapiens, UniProt P00156) (P00156 whole entry, one chain of several): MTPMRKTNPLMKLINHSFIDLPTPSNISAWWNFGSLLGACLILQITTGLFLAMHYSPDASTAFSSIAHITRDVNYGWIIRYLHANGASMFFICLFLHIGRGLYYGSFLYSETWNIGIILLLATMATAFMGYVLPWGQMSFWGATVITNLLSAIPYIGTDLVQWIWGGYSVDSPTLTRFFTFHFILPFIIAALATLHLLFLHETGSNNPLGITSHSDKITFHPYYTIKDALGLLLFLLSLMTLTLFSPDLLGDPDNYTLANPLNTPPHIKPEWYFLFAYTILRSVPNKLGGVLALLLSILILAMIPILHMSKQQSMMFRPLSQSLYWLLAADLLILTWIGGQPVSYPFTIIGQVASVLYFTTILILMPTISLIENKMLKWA

With `O=C1C(O)=C([C@H]2CC[C@H](c3ccc(Cl)cc3)CC2)C(=O)c2ccccc21` [Atovaquone], half-maximal inhibition in experiment [1] (IC50) was put at 0.327 ± 0.03 µM.

For the compound `CCCCCCCCCCOc1cc2c(O)c(C(=O)OCC)cnc2cc1OCC` [Decoquinate], the IC50 (as a rule, the point on the concentration scale where inhibition reaches its midpoint) in experiment [2] was determined as 0.002 ± 0.0005 µM.
